# Results taken from patent US7709636B2, “Pyrazole sulfonylurea compound and herbicide” (Nissan Chemical Industries, Ltd., priority 2004, dated 2010).
# How the values were obtained:
# Echinochloa crus-galli [1] = test: Herbicidal effect test in submerged condition by treatment before weed-generation (1); format: in vivo; conditions: 0.64 g/a, water surface treated on day of sowing, 3 weeks after treatment
# Excerpt: (§1) Herbicidal Effect Test in Submerged Condition by Treatment Before Weed-Generation (1)
# (§2) After alluvial soil was placed in a styrol cup of 1/30000 are, water was poured therein and mixed, and adjusted to a submerged condition of water depth 4 cm. After seeds of Echinochloa crus-galli, Scirpus juncoides and Monochoria vaginalis were sown in the cup, rice seedlings at 2.5th leaf stage were transplanted. On the day when the seeds were sown, the wettable powder of the present invention prepared according to Formulation Example 1 was diluted with water so as to give a predetermined formulation amount, and the surface of the water was treated with the diluted wettable powder. The plants were grown by putting the cup in a green house at 25 to 30° C., and investigated on herbicidal effect against each weed 3 weeks after treatment with the herbicide according to the following criteria.
# (§3) 5 Herbicidal rate 90% or more (almost complete death)
# (§4) 4 Herbicidal rate 70% or more and less than 90%
# (§5) 3 Herbicidal rate 40% or more and less than 70%
# (§6) 2 Herbicidal rate 20% or more and less than 40%
# (§7) 1 Herbicidal rate 5% or more and less than 20%
# (§8) 0 Herbicidal rate 5% or less (little effect)
# Monochoria vaginalis [2] = test: as above; format: in vivo; conditions: 0.64 g/a, water surface treated on day of sowing, 3 weeks after treatment
# Excerpt: as §1, §2, §3, §4, §5, §6, §7, §8
# Scirpus juncoides [3] = test: as above; format: in vivo; conditions: 0.64 g/a, water surface treated on day of sowing, 3 weeks after treatment
# Excerpt: as §1, §2, §3, §4, §5, §6, §7, §8
# Echinochloa crus-galli [4] = test: Herbicidal effect test in submerged condition by treatment during weed-growth stage (1); format: in vivo; conditions: 0.64 g/a, treated at 1st to 2nd leaf stage, 3 weeks after treatment
# Description: (§9) Herbicidal Effect Test in Submerged Condition by Treatment During Weed-Growth Stage (1) After alluvial soil was placed in a styrol cup of 1/30000 are, water was poured therein and mixed, and adjusted to a submerged condition of water depth 4 cm. After seeds of Echinochloa crus-galli, Scirpus juncoides and Monochoria vaginalis were sown in the cup, the plants were grown by putting the cup in a green house at 25 to 30° C. When Echinochloa crus-galli, Scirpus juncoides and Monochoria vaginalis reached 1st to 2nd leaf stage, the wettable powder of the present invention prepared according to Formulation Example 1 was diluted with water so as to give a predetermined formulation amount, and the surface of the water was treated with the diluted wettable powder. The herbicidal effect for each plant was investigated 3 weeks after treatment with the herbicide according to the criteria indicated in Test Example 1.
# Monochoria vaginalis [5] = test: as above; format: in vivo; conditions: 0.64 g/a, treated at 1st to 2nd leaf stage, 3 weeks after treatment
# Description: as §9
# Scirpus juncoides [6] = test: as above; format: in vivo; conditions: 0.64 g/a, treated at 1st to 2nd leaf stage, 3 weeks after treatment
# Description: as §9
# Abutilon avicennae [7] = test: Herbicidal effect test by soil treatment; format: in vivo; conditions: 1.6 g/a, 3 weeks after treatment
# Excerpt: (§10) Herbicidal Effect Test by Soil Treatment
# (§11) Sterilized diluvial soil was placed in a plastic box having a size of length 21 cm, width 13 cm and depth 7 cm, seeds Echinochloa crus-galli, Digitaria adscendes, Setaria viridis, Avena fatua, Black-grass, Abutilon avicennae, Ambrosia elatior, Amaranthus retroflexus, Chenopodium album, Polygonum blumei, Stellaria media, Zea mays (corn), Glycine max (soybean), Oryza sativa (rice), Triticum aestivum (wheat) and Beta vulgaris (beat) were sown interspatially, covered with about 1.5 cm of soil, and then the wettable powder of the present invention prepared according to Formulation Example 1 was diluted with water so as to give a predetermined formulation amount, and the surface of the soil was uniformly treated with the diluted wettable powder by use of a small-sized spray. The herbicidal effect for each plant was investigated 3 weeks after treatment with the herbicide according to the criteria indicated in Test Example 1.
# Amaranthus retroflexus [8] = test: Herbicidal effect test by soil treatment; format: in vivo; conditions: 1.6 g/a, 3 weeks after treatment
# Excerpt: as §10, §11
# Ambrosia elatior [9] = test: Herbicidal effect test by soil treatment; format: in vivo; conditions: 1.6 g/a, 3 weeks after treatment
# Excerpt: as §10, §11
# Avena fatua [10] = test: Herbicidal effect test by soil treatment; format: in vivo; conditions: 1.6 g/a, 3 weeks after treatment
# Excerpt: as §10, §11
# Beta vulgaris (beet) [11] = test: Herbicidal effect test by soil treatment; format: in vivo; conditions: 1.6 g/a, 3 weeks after treatment
# Excerpt: as §10, §11
# Black-grass = test: Herbicidal effect test by soil treatment; format: in vivo; conditions: 1.6 g/a, 3 weeks after treatment
# Excerpt: as §10, §11
# Chenopodium album [12] = test: Herbicidal effect test by soil treatment; format: in vivo; conditions: 1.6 g/a, 3 weeks after treatment
# Excerpt: as §10, §11
# Digitaria adscendes [13] = test: Herbicidal effect test by soil treatment; format: in vivo; conditions: 1.6 g/a, 3 weeks after treatment
# Excerpt: as §10, §11
# Echinochloa crus-galli [14] = test: Herbicidal effect test by soil treatment; format: in vivo; conditions: 1.6 g/a, 3 weeks after treatment
# Excerpt: as §10, §11
# Polygonum blumei [15] = test: Herbicidal effect test by soil treatment; format: in vivo; conditions: 1.6 g/a, 3 weeks after treatment
# Excerpt: as §10, §11
# Setaria viridis [16] = test: Herbicidal effect test by soil treatment; format: in vivo; conditions: 1.6 g/a, 3 weeks after treatment
# Excerpt: as §10, §11
# Stellaria media [17] = test: Herbicidal effect test by soil treatment; format: in vivo; conditions: 1.6 g/a, 3 weeks after treatment
# Excerpt: as §10, §11
# [18] = tested on: Triticum aestivum (wheat); test: Herbicidal effect test by soil treatment; format: in vivo; conditions: 1.6 g/a, 3 weeks after treatment
# Excerpt: as §10, §11
# corn (Zea mays) [19] = test: Herbicidal effect test by soil treatment; format: in vivo; conditions: 1.6 g/a, 3 weeks after treatment
# Excerpt: as §10, §11
# soybean (Glycine max) [20] = test: Herbicidal effect test by soil treatment; format: in vivo; conditions: 1.6 g/a, 3 weeks after treatment
# Excerpt: as §10, §11
# direct sown rice [21] = test: Herbicidal effect test by soil treatment; format: in vivo, Oryza sativa; conditions: 1.6 g/a, 3 weeks after treatment
# Excerpt: as §10, §11
# Abutilon avicennae [22] = test: Herbicidal effect test by foliage treatment; format: in vivo; conditions: 1.6 g/a; foliage treatment after growth of 14 days; 3 weeks after treatment
# Excerpt: (§12) Herbicidal Effect Test by Foliage Treatment
# (§13) Sterilized diluvial soil was placed in a plastic box having a size of length 21 cm, width 13 cm and depth 7 cm, seeds of Echinochloa crus-galli, Digitaria adscendes, Setaria viridis, Avena fatua, Black-grass, Abutilon avicennae, Ambrosia elatior, Amaranthus retroflexus, Chenopodium album, Polygonum blumei, Stellaria media, Zea mays, Glycine max, Oryza sativa, Triticum aestivum and Beta vulgaris were sown interspatially, covered with about 1.5 cm of soil, and then the plants were grown by putting the box in a green house at 25 to 30° C. After growth of 14 days, the wettable powder of the present invention prepared according to Formulation Example 1 was diluted with water so as to give a predetermined formulation amount, and the foliage part was uniformly treated with the diluted wettable powder by use of a small-sized spray. The herbicidal effect for each plant was investigated 3 weeks after treatment with the herbicide according to the criteria indicated in Test Example 1.
# Amaranthus retroflexus [23] = test: Herbicidal effect test by foliage treatment; format: in vivo; conditions: 1.6 g/a; foliage treatment after growth of 14 days; 3 weeks after treatment
# Excerpt: as §12, §13
# Ambrosia elatior [24] = test: Herbicidal effect test by foliage treatment; format: in vivo; conditions: 1.6 g/a; foliage treatment after growth of 14 days; 3 weeks after treatment
# Excerpt: as §12, §13
# Avena fatua [25] = test: Herbicidal effect test by foliage treatment; format: in vivo; conditions: 1.6 g/a; foliage treatment after growth of 14 days; 3 weeks after treatment
# Excerpt: as §12, §13
# Beta vulgaris (beet) [26] = test: Herbicidal effect test by foliage treatment; format: in vivo; conditions: 1.6 g/a; foliage treatment after growth of 14 days; 3 weeks after treatment
# Excerpt: as §12, §13
# Chenopodium album [27] = test: Herbicidal effect test by foliage treatment; format: in vivo; conditions: 1.6 g/a; foliage treatment after growth of 14 days; 3 weeks after treatment
# Excerpt: as §12, §13
# Digitaria adscendes [28] = test: Herbicidal effect test by foliage treatment; format: in vivo; conditions: 1.6 g/a; foliage treatment after growth of 14 days; 3 weeks after treatment
# Excerpt: as §12, §13
# Echinochloa crus-galli [29] = test: Herbicidal effect test by foliage treatment; format: in vivo; conditions: 1.6 g/a; foliage treatment after growth of 14 days; 3 weeks after treatment
# Excerpt: as §12, §13
# Polygonum blumei [30] = test: Herbicidal effect test by foliage treatment; format: in vivo; conditions: 1.6 g/a; foliage treatment after growth of 14 days; 3 weeks after treatment
# Excerpt: as §12, §13
# Setaria viridis [31] = test: Herbicidal effect test by foliage treatment; format: in vivo; conditions: 1.6 g/a; foliage treatment after growth of 14 days; 3 weeks after treatment
# Excerpt: as §12, §13
# Stellaria media [32] = test: Herbicidal effect test by foliage treatment; format: in vivo; conditions: 1.6 g/a; foliage treatment after growth of 14 days; 3 weeks after treatment
# Excerpt: as §12, §13
# [33] = tested on: Triticum aestivum (wheat); test: Herbicidal effect test by foliage treatment; format: in vivo; conditions: 1.6 g/a; foliage treatment after growth of 14 days; 3 weeks after treatment
# Excerpt: as §12, §13
# corn (Zea mays) [34] = test: Herbicidal effect test by foliage treatment; format: in vivo; conditions: 1.6 g/a; foliage treatment after growth of 14 days; 3 weeks after treatment
# Excerpt: as §12, §13
# soybean (Glycine max) [35] = test: Herbicidal effect test by foliage treatment; format: in vivo; conditions: 1.6 g/a; foliage treatment after growth of 14 days; 3 weeks after treatment
# Excerpt: as §12, §13
# direct sown rice [36] = test: Herbicidal effect test by foliage treatment; format: in vivo, Oryza sativa; conditions: 1.6 g/a; foliage treatment after growth of 14 days; 3 weeks after treatment
# Excerpt: as §12, §13
smiles,measurement,setting,value
"COc1cc(OC)nc(NC(=O)NS(=O)(=O)c2c(C3=NOCC(C)(C)O3)c(Cl)nn2C)n1 [Compound 3, N-((4,6-dimethoxypyrimidin-2-yl)aminocarbonyl)-3-chloro-4-(5,5-dimethyl-5H,6H-1,4,2-dioxadin-3-yl)-1-methylpyrazole-5-sulfonamide]","herbicidal effect, A: Echinochloa crus-galli",Echinochloa crus-galli [1],5 (Herbicidal rate 90% or more (almost complete death))
same,"herbicidal effect, C: Monochoria vaginalis",Monochoria vaginalis [2],5 (Herbicidal rate 90% or more (almost complete death))
same,"herbicidal effect, B: Scirpus juncoides",Scirpus juncoides [3],5 (Herbicidal rate 90% or more (almost complete death))
same,"herbicidal effect, A: Echinochloa crus-galli",Echinochloa crus-galli [4],5 (Herbicidal rate 90% or more (almost complete death))
same,"herbicidal effect, C: Monochoria vaginalis",Monochoria vaginalis [5],5 (Herbicidal rate 90% or more (almost complete death))
same,"herbicidal effect, B: Scirpus juncoides",Scirpus juncoides [6],5 (Herbicidal rate 90% or more (almost complete death))
same,"herbicidal effect, H: Abutilon avicennae",Abutilon avicennae [7],5 (Herbicidal rate 90% or more (almost complete death))
same,"herbicidal effect, J: Amaranthus retroflexus",Amaranthus retroflexus [8],4 (Herbicidal rate 70% or more and less than 90%)
same,"herbicidal effect, I: Ambrosia elatior",Ambrosia elatior [9],5 (Herbicidal rate 90% or more (almost complete death))
same,"herbicidal effect, F: Avena fatua",Avena fatua [10],0 (Herbicidal rate 5% or less (little effect))
same,"herbicidal effect, f: Beta vulgaris (beet)",Beta vulgaris (beet) [11],4 (Herbicidal rate 70% or more and less than 90%)
same,"herbicidal effect, G: Black-grass",Black-grass,3 (Herbicidal rate 40% or more and less than 70%)
same,"herbicidal effect, K: Chenopodium album",Chenopodium album [12],3 (Herbicidal rate 40% or more and less than 70%)
same,"herbicidal effect, D: Digitaria adscendes",Digitaria adscendes [13],2 (Herbicidal rate 20% or more and less than 40%)
same,"herbicidal effect, A: Echinochloa crus-galli",Echinochloa crus-galli [14],2 (Herbicidal rate 20% or more and less than 40%)
same,"herbicidal effect, L: Polygonum blumei",Polygonum blumei [15],5 (Herbicidal rate 90% or more (almost complete death))
same,"herbicidal effect, E: Setaria viridis",Setaria viridis [16],0 (Herbicidal rate 5% or less (little effect))
same,"herbicidal effect, M: Stellaria media",Stellaria media [17],5 (Herbicidal rate 90% or more (almost complete death))
same,"herbicidal effect, e: Triticum aestivum (wheat)",[18],0 (Herbicidal rate 5% or less (little effect))
same,"herbicidal effect, b: corn (Zea mays)",corn (Zea mays) [19],3 (Herbicidal rate 40% or more and less than 70%)
same,"herbicidal effect, c: soybean (Glycine max)",soybean (Glycine max) [20],1 (Herbicidal rate 5% or more and less than 20%)
same,"herbicidal effect, d: direct sown rice",direct sown rice [21],0 (Herbicidal rate 5% or less (little effect))
same,"herbicidal effect, H: Abutilon avicennae",Abutilon avicennae [22],5 (Herbicidal rate 90% or more (almost complete death))
same,"herbicidal effect, J: Amaranthus retroflexus",Amaranthus retroflexus [23],0 (Herbicidal rate 5% or less (little effect))
same,"herbicidal effect, I: Ambrosia elatior",Ambrosia elatior [24],5 (Herbicidal rate 90% or more (almost complete death))
same,"herbicidal effect, F: Avena fatua",Avena fatua [25],0 (Herbicidal rate 5% or less (little effect))
same,"herbicidal effect, f: Beta vulgaris (beet)",Beta vulgaris (beet) [26],3 (Herbicidal rate 40% or more and less than 70%)
same,"herbicidal effect, K: Chenopodium album",Chenopodium album [27],2 (Herbicidal rate 20% or more and less than 40%)
same,"herbicidal effect, D: Digitaria adscendes",Digitaria adscendes [28],3 (Herbicidal rate 40% or more and less than 70%)
same,"herbicidal effect, A: Echinochloa crus-galli",Echinochloa crus-galli [29],4 (Herbicidal rate 70% or more and less than 90%)
same,"herbicidal effect, L: Polygonum blumei",Polygonum blumei [30],3 (Herbicidal rate 40% or more and less than 70%)
same,"herbicidal effect, E: Setaria viridis",Setaria viridis [31],2 (Herbicidal rate 20% or more and less than 40%)
same,"herbicidal effect, M: Stellaria media",Stellaria media [32],5 (Herbicidal rate 90% or more (almost complete death))
same,"herbicidal effect, e: Triticum aestivum (wheat)",[33],0 (Herbicidal rate 5% or less (little effect))
same,"herbicidal effect, b: corn (Zea mays)",corn (Zea mays) [34],4 (Herbicidal rate 70% or more and less than 90%)
same,"herbicidal effect, c: soybean (Glycine max)",soybean (Glycine max) [35],5 (Herbicidal rate 90% or more (almost complete death))
same,"herbicidal effect, d: direct sown rice",direct sown rice [36],0 (Herbicidal rate 5% or less (little effect))
